# Target: T1, BRD4 (Homo sapiens, UniProt O60885)
# T1 construct: HEK293 containing a HiBit insertion for BRD4; endogenous in cells; host or cells: HEK293 with a HiBiT insertion for BRD4
# Experiment: Assay 1 - Degradation of HiBit-BRD4 in HEK293
# Type: cell-based
# Details: HiBit-BRD4 in HEK293, 6 h treatment
# Experimental: 1.1 Assay 1-Degradation of HiBit-BRD4 in HEK293
# HEK293 containing a HiBit insertion for BRD4 were plated in 384-well tissue culture plates at a density of 8×10^4 per well in a volume of 36 μL and incubated overnight at 37° C. and 5% CO2. Wells were treated with test compounds for 6 h prior to addition of the NanoLuc substrate and reading on a […]. Degradation data was plotted and analysed using […] (Graphpad).
Structure (SMILES),DC50 [nM],Dmax [%]
CC(=O)N1c2ccc(-c3ccc(C(=O)NCCOCCOCCOCCOCCOCCNC(=O)[C@@H]4CN(C(=O)/C(C#N)=C/c5nccs5)C[C@H]4c4ccccc4)cc3)cc2[C@H](Nc2ccc(Cl)cc2)C[C@@H]1C [Example 15u],25 to 200,50 to 70
CC(=O)N1c2ccc(-c3ccc(C(=O)NCCOCCOCCOCCOCCOCCNC(=O)[C@@H]4CN(C(=O)/C(C#N)=C/c5ccn(C)n5)C[C@H]4c4ccccc4)cc3)cc2[C@H](Nc2ccc(Cl)cc2)C[C@@H]1C [Example 15w],25 to 200,30 to 50
CC(=O)N1c2ccc(-c3ccc(C(=O)NCCOCCOCCOCCOCCOCCNC(=O)[C@@H]4CN(C(=O)/C(C#N)=C/c5ccc(F)cc5)C[C@H]4c4ccccc4)cc3)cc2[C@H](Nc2ccc(Cl)cc2)C[C@@H]1C [Example 15x],> 200,30 to 50
COc1ccc([C@@H]2CN(C(=O)/C(C#N)=C/c3nccs3)C[C@H]2C(=O)NCCOCCOCCOCCOCCOCCNC(=O)c2ccc(-c3ccc4c(c3)[C@H](Nc3ccc(Cl)cc3)C[C@H](C)N4C(C)=O)cc2)cc1 [Example 15z],25 to 200,30 to 50

# Target: T2, BRD9 (Homo sapiens, UniProt Q9H8M2)
# T2 sequence (Q9H8M2 1-597): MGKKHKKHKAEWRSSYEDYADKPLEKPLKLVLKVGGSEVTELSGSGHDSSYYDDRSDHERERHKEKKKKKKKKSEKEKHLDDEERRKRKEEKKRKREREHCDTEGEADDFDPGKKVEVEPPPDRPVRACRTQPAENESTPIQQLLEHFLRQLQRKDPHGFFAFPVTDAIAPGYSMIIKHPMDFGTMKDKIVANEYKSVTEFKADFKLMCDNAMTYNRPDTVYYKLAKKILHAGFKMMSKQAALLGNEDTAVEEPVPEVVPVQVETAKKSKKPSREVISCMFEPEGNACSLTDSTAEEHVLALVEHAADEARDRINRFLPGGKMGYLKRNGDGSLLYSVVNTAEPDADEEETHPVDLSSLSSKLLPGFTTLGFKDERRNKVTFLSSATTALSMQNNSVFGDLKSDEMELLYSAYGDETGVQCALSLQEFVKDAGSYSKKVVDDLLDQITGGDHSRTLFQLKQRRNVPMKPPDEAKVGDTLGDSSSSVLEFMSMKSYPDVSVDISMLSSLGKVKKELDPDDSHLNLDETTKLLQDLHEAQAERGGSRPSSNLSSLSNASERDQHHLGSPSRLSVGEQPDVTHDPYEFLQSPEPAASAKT
# Experiment: Assay Protocol 1 - Degradation of HiBit-BRD9 in HEK293
# Type: cell-based
# Details: Assay Protocol 1: HiBit-BRD9 in HEK293, 6 h, titration up to 10 μM
# Experimental: Assay Protocol 1—Degradation of HiBit-BRD9 in HEK293
# HEK293 stably expressing LgBit and containing a HiBit insertion for BRD9 were plated in 384-well tissue culture plates at a density of 8×10^3 per well in a volume of 36 μL and incubated overnight at 37° C. and 5% CO2. Wells were treated with test compounds (11 pt titration up to 10 μM) for 6 h prior to addition of Nano-Glo® Hibit Lytic buffer (1:50 substrate and 1:100 LgBit protein) and reading on a PheraSTAR. Degradation data was plotted and analysed using Prism 8 (Graphpad).
row,Structure (SMILES),DC50 [nM]
1,"COc1cc(-c2cn(C)c(=O)c(C)c2C)cc(OC)c1CN1CCN(C(=O)/C(C#N)=C/c2nccs2)CC1 [BRD9g, (E/Z)-2-(4-(2,6-dimethoxy-4-(1,4,5-trimethyl-6-oxo-1,6-dihydropyridin-3-yl)benzyl)piperazine-1-carbonyl)-3-(thiazol-2-yl)acrylonitrile]",> 200
2,"COc1cc(-c2cn(C)c(=O)c3ccsc23)cc(OC)c1CN1CCN(C(=O)/C(C#N)=C/C(C)(C)C)CC1 [BRD9w, (E/Z)-2-(4-(2,6-dimethoxy-4-(5-methyl-4-oxo-4,5-dihydrothieno[3,2-c]pyridin-7-yl)benzyl)piperazine-1-carbonyl)-4,4-dimethylpent-2-enenitrile]",25 to 200

# Same assay, conditions: HEK293, Assay Protocol 1: HiBit-BRD9 in HEK293, 6 h, titration up to 10 μM
row,Structure (SMILES),Dmax [%]
1,"COc1cc(-c2cn(C)c(=O)c(C)c2C)cc(OC)c1CN1CCN(C(=O)/C(C#N)=C/c2nccs2)CC1 [BRD9g, (E/Z)-2-(4-(2,6-dimethoxy-4-(1,4,5-trimethyl-6-oxo-1,6-dihydropyridin-3-yl)benzyl)piperazine-1-carbonyl)-3-(thiazol-2-yl)acrylonitrile]",30 to 50

# Target: T2, BRD9
# Experiment: Assay Protocol 2 - Degradation of BRD9 (IF) in MV4-11 cells
# Type: cell-based
# Set-up: host or cells: MV4-11
# Details: Assay Protocol 2: BRD9 immunofluorescence, 24 hours
# Experimental: Assay Protocol 2—Degradation of BRD9 (IF)
# A suspension of MV4-11 cells (ATCC CRL-9591) was prepared in phenol red-free assay media (IMDM Thermo Scientific 21056023+10% FBS ATCC 302025) and cells were seeded at 20,000 cells per well (45 μL) in sterile black poly-d-lysine coated 384 well plates (Greiner 781948). Compounds were prepared at 1000× final concentration in DMSO, diluted 1:100 in assay media, and 5 μL compound was added to each well of the cell plate. Cells were incubated for 24 hours at 37° C. with 5% CO2. All the following incubations for immunofluorescence staining were at room temperature. 15 μL of 16% PFA was added to each well (3.7% final concentration) and the cells were fixed for 15 min then washed twice with DPBS. Cells were permeabilised with 0.1% Triton X-100 for 10 min, Triton X-100 was removed, then blocked with 1% BSA in DPBS for 1 hour. Cells were stained with 25 μL anti-BRD9 E4Q3F antibody (CST 48306) diluted 1:25600 in 1% BSA in DPBS for 2-3 hours. Wells were washed twice with DPBS then incubated with 25 μL of 1% BSA containing a 1:1000 dilution of Anti-rabbit Alexa Fluor™ 647 secondary antibody (Thermo Scientific A^21244) and 1 μg/mL Hoechst nuclear counter stain (Abcam ab228551) for 1 hour. Wells were washed twice with DPBS prior to imaging on a Perkin Elmer Operetta CLS with 10× air lens. Images were processed using Harmony High-Content Imaging and Analysis Software (Perkin Elmer) and the mean contrast ratio of Alexa Fluor™ 647 in central nuclei was used to quantify BRD9 protein levels. Data was further analysed using Dotmatics software and % BRD9 remaining was calculated by normalisation to average data from high and low control wells (cells treated with DMSO or 100 nM CFT-8634 respectively).
Structure (SMILES),DC50 [nM],Dmax [%]
"COc1cc(-c2cn(C)c(=O)c(C)c2C)cc(OC)c1CN1CC2CC1CN2C(=O)/C(C#N)=C/C(C)(C)C (mixture of isomers) [BRD9b, (E/Z)-2-(5-(2,6-dimethoxy-4-(1,4,5-trimethyl-6-oxo-1,6-dihydropyridin-3-yl)benzyl)-2,5-diazabicyclo[2.2.1]heptane-2-carbonyl)-4,4-dimethylpent-2-enenitrile]",> 200,
"COc1cc(-c2cn(C)c(=O)c(C)c2C)cc(OC)c1CN1CC2CC1CN2C(=O)/C(C#N)=C/c1nccs1 (mixture of isomers) [BRD9i, (E/Z)-2-(5-(2,6-dimethoxy-4-(1,4,5-trimethyl-6-oxo-1,6-dihydropyridin-3-yl)benzyl)-2,5-diazabicyclo[2.2.1]heptane-2-carbonyl)-3-(thiazol-2-yl)acrylonitrile]",> 200,30 to 50
"COc1cc(-c2cn(C)c(=O)c(C)c2C)cc(OC)c1CN1CC2CC(C1)N2C(=O)/C(C#N)=C/c1cccc(Br)n1 (mixture of isomers) [BRD9m, (E/Z)-3-(6-bromopyridin-2-yl)-2-(3-(2,6-dimethoxy-4-(1,4,5-trimethyl-6-oxo-1,6-dihydropyridin-3-yl)benzyl)-3,6-diazabicyclo[3.1.1]heptane-6-carbonyl)acrylonitrile]",,≥ 70
"COc1cc(-c2cn(C)c(=O)c(C)c2C)cc(OC)c1CN1C2CC1CN(C(=O)/C(C#N)=C/C1(C(F)(F)F)CCC1)C2 (mixture of isomers) [BRD9p, (E/Z)-2-(6-(2,6-dimethoxy-4-(1,4,5-trimethyl-6-oxo-1,6-dihydropyridin-3-yl)benzyl)-3,6-diazabicyclo[3.1.1]heptane-3-carbonyl)-3-(1-(trifluoromethyl)cyclobutyl)acrylonitrile]",25 to 200,50 to 70
"COc1cc(-c2cn(C)c(=O)c(C)c2C)cc(OC)c1C(=O)N1CC2CC1CN2C(=O)/C(C#N)=C/C(C)(C)C (mixture of isomers) [BRD9t, (E/Z)-2-(5-(2,6-dimethoxy-4-(1,4,5-trimethyl-6-oxo-1,6-dihydropyridin-3-yl)benzoyl)-2,5-diazabicyclo[2.2.1]heptane-2-carbonyl)-4,4-dimethylpent-2-enenitrile]",25 to 200,
"COc1cc(-c2cn(C)c(=O)c(C)c2C)cc(OC)c1CN1C[C@@H](C)N(C(=O)/C(C#N)=C/C(C)(C)C)C[C@@H]1C [BRD9ad, (E)-2-((2R,5S)-4-(2,6-dimethoxy-4-(1,4,5-trimethyl-6-oxo-1,6-dihydropyridin-3-yl)benzyl)-2,5-dimethylpiperazine-1-carbonyl)-4,4-dimethylpent-2-enenitrile]",25 to 200,50 to 70
"COc1cc(-c2cn(C)c(=O)c(C)c2C)cc(OC)c1CN1C2CC1CN(C(=O)/C(C#N)=C/c1cccc(C(F)(F)F)n1)C2 [BRD9af, (E)-2-(6-(2,6-dimethoxy-4-(1,4,5-trimethyl-6-oxo-1,6-dihydropyridin-3-yl)benzyl)-3,6-diazabicyclo[3.1.1]heptane-3-carbonyl)-3-(6-(trifluoromethyl)pyridin-2-yl)acrylonitrile]",< 25,≥ 70
"COc1cc(-c2cn(C)c(=O)c(C)c2C)cc(OC)c1CN1C2CC1CN(C(=O)/C(C#N)=C/C1(F)CC1)C2 [BRD9ag, (E)-2-(6-(2,6-dimethoxy-4-(1,4,5-trimethyl-6-oxo-1,6-dihydropyridin-3-yl)benzyl)-3,6-diazabicyclo[3.1.1]heptane-3-carbonyl)-3-(1-fluorocyclopropyl)acrylonitrile]",< 25,≥ 70
"COc1cc(-c2cn(C)c(=O)c(C)c2C)cc(OC)c1CN1CCN(C(=O)C2CC(C)CN(C(=O)/C(C#N)=C/C(C)(C)C)C2)CC1 (stereo not shown) [BRD9ba, (E)-2-(3-(4-(2,6-dimethoxy-4-(1,4,5-trimethyl-6-oxo-1,6-dihydropyridin-3-yl)benzyl)piperazine-1-carbonyl)-5-methylpiperidine-1-carbonyl)-4,4-dimethylpent-2-enenitrile]",< 25,≥ 70
"COc1cc(-c2cn(C)c(=O)c(C)c2C)cc(OC)c1C(=O)N1CCN(C(=O)/C(C#N)=C/C(C)(C)C)CC1 [BRD9s, (E/Z)-2-(4-(2,6-dimethoxy-4-(1,4,5-trimethyl-6-oxo-1,6-dihydropyridin-3-yl)benzoyl)piperazine-1-carbonyl)-4,4-dimethylpent-2-enenitrile]",25 to 200,
"COc1cc(-c2cn(C)c(=O)c(C)c2C)cc(OC)c1C(=O)N1CCCN(C(=O)/C(C#N)=C/C(C)(C)C)CC1 [BRD9v, (E/Z)-2-(4-(2,6-dimethoxy-4-(1,4,5-trimethyl-6-oxo-1,6-dihydropyridin-3-yl)benzoyl)-1,4-diazepane-1-carbonyl)-4,4-dimethylpent-2-enenitrile]",25 to 200,

# Reference: patent publication US20260232812A1, “BIFUNCTIONAL MOLECULES FOR TARGETED PROTEIN DEGRADATION” (Amphista Therapeutics Limited, priority 2022, published 2026)
